Source: patent publication US20250250263A1, “INHIBITING HISTONE DEACETYLASE 6 (HDAC6)” (Eikonizo Therapeutics, Inc., priority 2022, published 2025)

How the values were obtained:
Human HDAC6 = Human HDAC6 (Homo sapiens (Human), UniProt Q9UBN7); assay: In vitro HDAC6 enzymatic activity (Caliper endpoint assay or fluorogenic Nanosyn assay); type: biochemical; settings: ratio of HDAC8 IC50/HDAC6 IC50
Human HDAC8 = Human HDAC8 (Homo sapiens (Human), UniProt Q9BY41); assay: In vitro HDAC8 enzymatic activity (Caliper endpoint assay); type: biochemical
Human HDAC8, sequence (Q9BY41 whole entry): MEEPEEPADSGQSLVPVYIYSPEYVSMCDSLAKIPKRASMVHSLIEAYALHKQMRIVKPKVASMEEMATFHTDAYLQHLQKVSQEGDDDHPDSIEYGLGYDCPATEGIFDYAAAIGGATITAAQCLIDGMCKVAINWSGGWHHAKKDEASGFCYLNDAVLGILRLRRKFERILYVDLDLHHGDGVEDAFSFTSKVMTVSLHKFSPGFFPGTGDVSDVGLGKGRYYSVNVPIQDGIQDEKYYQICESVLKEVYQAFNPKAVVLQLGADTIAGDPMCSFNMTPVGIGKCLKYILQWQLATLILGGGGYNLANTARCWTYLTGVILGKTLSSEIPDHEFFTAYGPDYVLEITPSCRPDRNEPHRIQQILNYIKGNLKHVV

Human HDAC6, sequence (Q9UBN7 whole entry): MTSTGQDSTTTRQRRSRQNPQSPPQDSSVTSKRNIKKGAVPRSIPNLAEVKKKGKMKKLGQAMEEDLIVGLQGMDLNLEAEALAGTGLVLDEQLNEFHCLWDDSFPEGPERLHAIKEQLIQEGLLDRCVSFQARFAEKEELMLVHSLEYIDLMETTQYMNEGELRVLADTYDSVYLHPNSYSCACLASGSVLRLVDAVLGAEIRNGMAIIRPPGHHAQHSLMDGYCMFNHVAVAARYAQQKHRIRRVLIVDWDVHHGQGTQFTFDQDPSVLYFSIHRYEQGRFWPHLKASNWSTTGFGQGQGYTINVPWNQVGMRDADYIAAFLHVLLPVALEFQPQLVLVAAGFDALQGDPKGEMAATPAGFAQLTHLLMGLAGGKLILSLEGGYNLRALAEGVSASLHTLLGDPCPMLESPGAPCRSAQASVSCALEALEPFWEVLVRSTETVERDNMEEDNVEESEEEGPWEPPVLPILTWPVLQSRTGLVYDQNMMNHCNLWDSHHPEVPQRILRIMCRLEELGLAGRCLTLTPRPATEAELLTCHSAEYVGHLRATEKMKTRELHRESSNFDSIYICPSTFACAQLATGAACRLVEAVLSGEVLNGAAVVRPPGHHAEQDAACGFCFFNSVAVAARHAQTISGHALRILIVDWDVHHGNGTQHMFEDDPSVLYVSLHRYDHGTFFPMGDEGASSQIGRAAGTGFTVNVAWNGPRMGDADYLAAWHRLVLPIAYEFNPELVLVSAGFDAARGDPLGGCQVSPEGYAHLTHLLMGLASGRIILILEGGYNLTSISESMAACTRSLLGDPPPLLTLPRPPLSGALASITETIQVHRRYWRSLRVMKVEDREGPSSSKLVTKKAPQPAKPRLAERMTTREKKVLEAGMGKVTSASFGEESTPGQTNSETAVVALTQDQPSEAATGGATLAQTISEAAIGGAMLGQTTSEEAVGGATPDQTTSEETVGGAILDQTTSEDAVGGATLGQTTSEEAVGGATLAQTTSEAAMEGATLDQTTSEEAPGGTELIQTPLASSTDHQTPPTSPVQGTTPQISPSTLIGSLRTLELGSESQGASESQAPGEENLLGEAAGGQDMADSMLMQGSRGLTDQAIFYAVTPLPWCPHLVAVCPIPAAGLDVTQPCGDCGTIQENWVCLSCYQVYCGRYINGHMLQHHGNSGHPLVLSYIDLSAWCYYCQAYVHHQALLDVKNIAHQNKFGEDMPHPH

Row | Structure (SMILES) | Selectivity (6 v 8) (fold) (Human HDAC6) | IC50 (Human HDAC8) [µM]
1 | FC(F)c1nnc(-c2ccc(COc3ccc4cccnc4c3)nc2)o1 [Compound 34] | V (V: >1000) | > 100
2 | N#Cc1cc(OCc2ccc(-c3nnc(C(F)F)o3)cn2)ccc1F [Compound 30, 5-((5-(5-(difluoromethyl)-1,3,4-oxadiazol-2-yl)pyridin-2-yl)methoxy)-2-fluorobenzonitrile] | IV (IV: >100-1000) | –
3 | FC(F)c1nnc(-c2ccc(COc3cccc4ncccc34)nc2)o1 [Compound 63] | V (V: >1000) | > 100
